From ChEMBL document CHEMBL1136669, “Synthesis of aza and oxaglutamyl-p-nitroanilide derivatives and their kinetic studies with gamma-glutamyltranspeptidase” (Bioorg Med Chem Lett, 2003)
Active and inactive are the calls of the source. The rule behind the calls is not given here.

Experiments:
[1] = Ratio of kinetic constant (Kcat/KM) acting as acceptor substrate for gamma-GGT (Glutamyltranspeptidase)-mediated transpeptidation was determined in rat kidney; parameters: unit not given here
[2] = Ratio of kinetic constant (Kcat/KM) acting as donor substrate for gamma-GGT (Glutamyltranspeptidase)-mediated transpeptidation was determined in rat kidney; Not applicable
[3] = target: Glutathione hydrolase 1 proenzyme (Rattus norvegicus) (UniProt P07314); assay: Kinetic constant acting as donor substrate for gamma-GGT (Glutamyltranspeptidase)-mediated transpeptidation was determined in rat kidney (units are 10e3/min); Not applicable; type: tissue-based
[4] = target: Glutathione hydrolase 1 proenzyme (Rattus norvegicus) (UniProt P07314); assay: Kinetic constant acting as acceptor substrate for gamma-GGT (Glutamyltranspeptidase)-mediated transpeptidation was determined in rat kidney (units are 10e3/min); type: tissue-based
[5] = Ratio of kinetic constant (Kcat/KM) acting as donor substrate for gamma-GGT (Glutamyltranspeptidase)-mediated transpeptidation was determined in rat kidney
[6] = target: Glutathione hydrolase 1 proenzyme (Rattus norvegicus) (UniProt P07314); assay: Kinetic constant acting as donor substrate for gamma-GGT (Glutamyltranspeptidase)-mediated transpeptidation was determined in rat kidney (units are 10e3/min); type: tissue-based
[7] = target: Glutathione hydrolase 1 proenzyme (Rattus norvegicus) (UniProt P07314); assay: Kinetic constant acting as donor substrate for gamma-GGT (Glutamyltranspeptidase)-mediated transpeptidation was determined in rat kidney (units are 10e3/min); Inactive at 2 mM with 33.8 mU of GGT; type: tissue-based
[8] = Ratio of kinetic constant (Kcat/KM) acting as donor substrate for gamma-GGT (Glutamyltranspeptidase)-mediated transpeptidation was determined in rat kidney; Inactive at 2 mM with 33.8 mU of GGT
[9] = Ratio of kinetic constant (Kcat/KM) acting as donor substrate for gamma-GGT (Glutamyltranspeptidase)-mediated transpeptidation was determined in rat kidney; Inactive at 2 mM with 33.8 mU of GGT in rat kidney
[10] = target: Glutathione hydrolase 1 proenzyme (Rattus norvegicus) (UniProt P07314); assay: Kinetic constant acting as donor substrate for gamma-GGT (Glutamyltranspeptidase)-mediated transpeptidation was determined (units are 10e3/min); Inactive at 2 mM with 33.8 mU of GGT in rat kidney; type: tissue-based
[11] = test system: COC(=O)[C@@H](N)CCC(=O)Nc1ccc([N+](=O)[O-])cc1; assay: (§1) Kinetic constant acting as donor substrate for GGT (gamma-Glutamyltranspeptidase)-mediated transpeptidation was determined in rat kidney; type: tissue-based
[12] = test system: N[C@@H](CCC(=O)Nc1ccc([N+](=O)[O-])cc1)C(=O)O; assay: as §1; type: tissue-based
COC(=O)[C@@H](N)CO [13] = assay: Kinetic constant acting as donor substrate for gamma-GGT (Glutamyltranspeptidase)-mediated transpeptidation was determined in rat kidney; Not applicable
[14] = test system: COC(=O)[C@@H](N)CNC(=O)Nc1ccc([N+](=O)[O-])cc1; assay: Kinetic constant acting as donor substrate for gamma-GGT (Glutamyltranspeptidase)-mediated transpeptidation was determined; Inactive at 2 mM with 33.8 mU of GGT in rat kidney; type: tissue-based
[15] = test system: COC(=O)[C@@H](N)COC(=O)Nc1ccc([N+](=O)[O-])cc1; assay: (§2) Kinetic constant acting as donor substrate for gamma-GGT (Glutamyltranspeptidase)-mediated transpeptidation was determined; in rat kidney; Inactive at 2 mM with 33.8 mU of GGT
[16] = test system: N[C@@H](CNC(=O)Nc1ccc([N+](=O)[O-])cc1)C(=O)O; assay: as §2
[17] = test system: COC(=O)[C@@H](N)CCC(=O)Nc1ccc([N+](=O)[O-])cc1; assay: (§3) Kinetic constant acting as acceptor substrate for gamma-GGT (Glutamyltranspeptidase)-mediated transpeptidation was determined in rat kidney
COC(=O)[C@@H](N)CO [18] = assay: as §3
[19] = test system: N[C@@H](CCC(=O)Nc1ccc([N+](=O)[O-])cc1)C(=O)O; assay: as §3
[20] = test system: COC(=O)[C@@H](N)CNC(=O)Nc1ccc([N+](=O)[O-])cc1; assay: as §3
[21] = test system: COC(=O)[C@@H](N)COC(=O)Nc1ccc([N+](=O)[O-])cc1; assay: as §3
[22] = test system: N[C@@H](CNC(=O)Nc1ccc([N+](=O)[O-])cc1)C(=O)O; assay: Kinetic constant acting as acceptor substrate for gamma-GGT (Glutamyltranspeptidase)-mediated transpeptidation was determined in rat kidney; Solubility- Insoluble for concentration greater than 15 mM
[23] = target: Glutathione hydrolase 1 proenzyme (Rattus norvegicus) (UniProt P07314); assay: Compound was tested for the mixed non-competitive inhibition of rat kidney gamma-glutamyltranspeptidase (gamma-GGT)
[24] = target: Glutathione hydrolase 1 proenzyme (Rattus norvegicus) (UniProt P07314); assay: Kinetic constant acting as acceptor substrate for gamma-GGT (Glutamyltranspeptidase)-mediated transpeptidation was determined in rat kidney (units are 10e3/min); Solubility- Insoluble for concentration greater than 15 mM; type: tissue-based
[25] = Ratio of kinetic constant (Kcat/KM) acting as acceptor substrate for gamma-GGT (Glutamyltranspeptidase)-mediated transpeptidation was determined in rat kidney; Solubility- Insoluble for concentration greater than 15 mM

Chain of Glutathione hydrolase 1 proenzyme (Rattus norvegicus), P07314 (P07314 whole entry): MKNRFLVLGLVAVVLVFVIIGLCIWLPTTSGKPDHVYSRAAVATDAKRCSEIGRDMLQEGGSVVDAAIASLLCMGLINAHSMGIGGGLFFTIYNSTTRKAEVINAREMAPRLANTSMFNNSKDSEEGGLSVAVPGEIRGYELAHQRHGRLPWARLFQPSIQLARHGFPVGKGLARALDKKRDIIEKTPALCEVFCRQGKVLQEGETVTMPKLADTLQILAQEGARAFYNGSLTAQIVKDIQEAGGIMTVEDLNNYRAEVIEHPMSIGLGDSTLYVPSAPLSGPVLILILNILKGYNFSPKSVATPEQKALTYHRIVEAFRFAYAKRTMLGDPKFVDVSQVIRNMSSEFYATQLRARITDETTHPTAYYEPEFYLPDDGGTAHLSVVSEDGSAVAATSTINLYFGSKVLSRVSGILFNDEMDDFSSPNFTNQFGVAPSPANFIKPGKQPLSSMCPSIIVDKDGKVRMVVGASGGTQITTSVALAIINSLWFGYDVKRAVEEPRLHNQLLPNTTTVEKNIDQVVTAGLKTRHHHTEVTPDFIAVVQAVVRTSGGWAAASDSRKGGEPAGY
Chain of Glutathione hydrolase 1 proenzyme (Rattus norvegicus) (P07314 1-379 limits assumed): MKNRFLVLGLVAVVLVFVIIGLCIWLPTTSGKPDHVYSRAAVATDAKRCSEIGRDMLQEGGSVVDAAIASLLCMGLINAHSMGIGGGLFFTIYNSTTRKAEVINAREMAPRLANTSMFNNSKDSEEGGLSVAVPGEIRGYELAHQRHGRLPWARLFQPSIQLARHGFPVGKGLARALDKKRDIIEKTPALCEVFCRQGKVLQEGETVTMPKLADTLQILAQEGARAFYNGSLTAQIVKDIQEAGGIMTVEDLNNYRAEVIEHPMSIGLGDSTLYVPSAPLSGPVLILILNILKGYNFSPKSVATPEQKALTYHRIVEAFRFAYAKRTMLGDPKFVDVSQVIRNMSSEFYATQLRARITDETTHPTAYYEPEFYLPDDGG
Chain of Glutathione hydrolase 1 proenzyme (Rattus norvegicus) (P07314 380-568 limits assumed): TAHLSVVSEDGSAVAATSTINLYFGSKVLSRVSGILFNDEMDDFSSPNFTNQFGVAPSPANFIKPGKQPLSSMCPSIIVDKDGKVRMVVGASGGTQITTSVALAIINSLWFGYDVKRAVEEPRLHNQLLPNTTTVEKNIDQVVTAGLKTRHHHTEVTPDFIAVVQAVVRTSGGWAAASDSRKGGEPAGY

With COC(=O)[C@@H](N)CO as the molecule, how does the Ratio [1] read?
Its Ratio is 38000.

And the Ratio [2]?
Its Ratio is “inactive”.

And the k cat [3]?
Its k cat is “inactive”.

And the k cat [4]?
Its k cat is 21.7 s⁻¹.

What does the source list for N[C@@H](CCC(=O)Nc1ccc([N+](=O)[O-])cc1)C(=O)O?
Ratio [5]: 1.5e+08; Ratio [1]: 2.5e+06; k cat [6]: 1.15 s⁻¹; k cat [4]: 267 s⁻¹

Which results are given for COC(=O)[C@@H](N)COC(=O)Nc1ccc([N+](=O)[O-])cc1?
k cat [7]: inactive; Ratio [1]: 3e+06; Ratio [8]: inactive; k cat [4]: 80 s⁻¹

With COC(=O)[C@@H](N)CNC(=O)Nc1ccc([N+](=O)[O-])cc1 as the molecule, how does the Ratio [9] read?
Its Ratio is “inactive”.

What about the Ratio [1] of the same molecule?
Its Ratio is 1.4e+06.

And the k cat [10]?
Its k cat is “inactive”.

What about the k cat [4] of the same molecule?
Its k cat is 102 s⁻¹.

With “Glutathione hydrolase 1 proenzyme (Rattus norvegicus), P07314” as the molecule, how does the Km [11] read?
The Km was 5.7 mM.

What about the Km [12] of the same molecule?
The Km was 0.47 mM.

What about the Km (COC(=O)[C@@H](N)CO [13]) of the same molecule?
Its Km is “Not Active”.

And the Km [14]?
The Km was “Not Active”.

And the Km [15]?
The Km was “Not Active”.

What about the Km [16] of the same molecule?
Its Km is “Not Active”.

What about the Km [17] of the same molecule?
Its Km is 6 mM.

And the Km (COC(=O)[C@@H](N)CO [18])?
Its Km is 34 mM.

What about the Km [19] of the same molecule?
Its Km is 6.3 mM.

What about the Km [20] of the same molecule?
The Km was 4 mM.

And the Km [21]?
The Km was 1.5 mM.

And the Km [22]?
The Km was “Insoluble”.

With COC(=O)[C@@H](N)CCC(=O)Nc1ccc([N+](=O)[O-])cc1 as the molecule, how does the Ratio [5] read?
Its Ratio is 270000.

What about the Ratio [1] of the same molecule?
The Ratio was 580000.

What about the k cat [6] of the same molecule?
Its k cat is 25 s⁻¹.

What about the k cat [4] of the same molecule?
Its k cat is 53.3 s⁻¹.

Which results are given for N[C@@H](CNC(=O)Nc1ccc([N+](=O)[O-])cc1)C(=O)O?
k cat [7]: inactive; Ki' uncomp [23]: 1.7 mM; Ratio [8]: inactive; k cat [24]: Insoluble; Ratio [25]: Insoluble
